Test results reported in US20100063065A1 (Inpharmatica Limited, priority 2005, published 2010).

Target: T1, PPARδ (Homo sapiens, UniProt Q03181)
T1 construct: fused to amino acids 147-441 of PPARδ downstream of CMV promoter; expressed in transfected cells; host or cells: HEK293 cells, transiently transfected with pFACMV-PPARδ using Fugene
T1 sequence (Q03181 147-441): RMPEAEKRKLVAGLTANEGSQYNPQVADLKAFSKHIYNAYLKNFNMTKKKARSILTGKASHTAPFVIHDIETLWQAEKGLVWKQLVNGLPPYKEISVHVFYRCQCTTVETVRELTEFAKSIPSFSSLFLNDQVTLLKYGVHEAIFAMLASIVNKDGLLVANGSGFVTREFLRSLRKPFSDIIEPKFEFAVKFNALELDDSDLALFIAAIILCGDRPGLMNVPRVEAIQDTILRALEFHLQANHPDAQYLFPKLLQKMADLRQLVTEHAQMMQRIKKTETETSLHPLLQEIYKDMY
Experiment: Transactivation assay (PPARδ GAL4 assay) in transiently transfected HEK293 cells
Type: cell-based
Conditions: luciferase reporter, Table 1
Experimental: Compounds were screened for their functional potency in transiently transfected HEK293 cells for their ability to activate PPAR subtypes. Cells were cultured in DMEM (Invitrogen) supplemented with 10% foetal calf serum, glutamine, penicillin and streptomycin and plated at 10 000 cells/well of a 96-well solid white plate and incubated at 37° C./5% CO2 for 24 hours. Media was removed and the cells washed with PBS. Cells were then transiently transfected using Fugene (Roche) with 50 ng pFACMV-PPARδ (plasmid encoding amino acids 1-147 of the GAL4 DNA binding domain, fused to amino acids 147-441 of PPARδ downstream of CMV promoter) and 250 ng pFR-Luc (reporter plasmid containing 5×GAL4 response elements upstream of a luciferase gene), using a ratio of 3:1 Fugene:DNA. 100 μl of this transfection mixture in DMEM (without foetal calf serum) was added to each well, and the incubation continued for a further 24 hours. The cells are then again washed with PBS prior to the addition of 100 μl reduced serum medium (OptiMEM; Invitrogen). Compounds were added (10 μl in 2% DMSO in OptiMEM) to achieve final concentrations between 0-30 μM. The cells were then returned to the incubator for a further 24 hours. 100 μl of luciferase reagent (Bright Glo, Promega) was added directly to each well, and the luminescence determined using a suitable luminometer.
To measure the selectivity of compounds, their ability to transactivate GAL4 fusions of PPARα LBD and PPARγ LBD was determined. The activity of compounds was expressed as a percentage relative to control compounds: PPARγ rosiglitazone (BRL 49653), PPARδ GW501516 (11) or PPARα KCL1999000269 (12). EC50 values were calculated by fitting of the data to a sigmoidal dose response curve.

Row | SMILES | EC50
1 | CCc1cc(C(=O)c2ccc(-c3ccc(OC(F)(F)F)cc3)cc2)c(NC(=O)CSCC(=O)O)s1 [Example 39, {[5-Ethyl-3-(4′-trifluoromethoxy-biphenyl-4-carbonyl)-thiophen-2-ylcarbamoyl]-methylsulfanyl}-acetic acid] | < 100 nM
2 | CCc1cc(C(=O)c2ccc(-c3ccc(F)cc3)cc2)c(NC(=O)CSCC(=O)O)s1 [Example 40, {[5-Ethyl-3-(4′-fluoro-biphenyl-4-carbonyl)-thiophen-2-ylcarbamoyl]-methylsulfanyl}-acetic acid] | < 100 nM
3 | CCc1cc(C(=O)c2ccc(-c3cncnc3)cc2)c(NC(=O)CSCC(=O)O)s1 [Example 41, {[5-Ethyl-3-(4-pyrimidin-5-yl-benzoyl)-thiophen-2-ylcarbamoyl]-methylsulfanyl}-acetic acid] | 1000 to 30000 nM
4 | CCc1cc(C(=O)c2ccc(-c3cnn(C)c3)cc2)c(NC(=O)CSCC(=O)O)s1 [Example 42, ({5-Ethyl-3-[4-(1-methyl-1H-pyrazol-4-yl)-benzoyl]-thiophen-2-ylcarbamoyl}-methylsulfanyl)-acetic acid] | 1000 to 30000 nM
5 | CCc1cc(C(=O)c2cccc(-c3ccc(F)cc3)c2)c(NC(=O)CSCC(=O)O)s1 [Example 43] | 100 to 1000 nM
6 | CCc1cc(C(=O)c2cccc(-c3ccc(OC(F)(F)F)cc3)c2)c(NC(=O)CSCC(=O)O)s1 [Example 44, {[5-Ethyl-3-(4′-trifluoromethoxy-biphenyl-3-carbonyl)-thiophen-2-ylcarbamoyl]-methylsulfanyl}-acetic acid] | 100 to 1000 nM
7 | CCc1cc(C(=O)c2ccc(C(F)(F)F)cc2)c(NC(=O)CSCC(=O)O)s1 [Example 45, {[5-Ethyl-3-(4-trifluoromethylbenzoyl)-thiophen-2-ylcarbamoyl]-methylsulfanyl}-acetic acid] | < 100 nM
8 | CCc1cc(C(=O)c2cccc3ccccc23)c(NC(=O)CSCC(=O)O)s1 [Example 46, {[5-Ethyl-3-(naphthalene-1-carbonyl)-thiophen-2-ylcarbamoyl]-methylsulfanyl}-acetic acid] | 1000 to 30000 nM
9 | CCc1cc(C(=O)c2ccc3ccccc3c2)c(NC(=O)CSCC(=O)O)s1 [Example 47, {[5-Ethyl-3-(naphthalene-2-carbonyl)-thiophen-2-ylcarbamoyl]-methylsulfanyl}-acetic acid] | 100 to 1000 nM
10 | CCc1cc(C(=O)c2cccc(OC)c2)c(NC(=O)CSCC(=O)O)s1 [Example 48, {[5-Ethyl-3-(3-methoxybenzoyl)-thiophen-2-ylcarbamoyl]-methylsulfanyl}-acetic acid] | 1000 to 30000 nM
11 | CCc1cc(C(=O)c2ccc(OC)c(OC)c2)c(NC(=O)CSCC(=O)O)s1 [Example 49, {[3-(3,4-Dimethoxybenzoyl)-5-ethyl-thiophen-2-ylcarbamoyl]-methylsulfanyl}-acetic acid] | 1000 to 30000 nM
12 | CCc1cc(C(=O)c2ccc(C(C)(C)C)cc2)c(NC(=O)CSCC(=O)O)s1 [Example 50, {[3-(4-tert-Butyl-benzoyl)-5-ethyl-thiophen-2-ylcarbamoyl]-methylsulfanyl}-acetic acid] | 1000 to 30000 nM
13 | CCc1cc(C(=O)c2ccc(C)c(C)c2)c(NC(=O)CSCC(=O)O)s1 [Example 51, {[3-(3,4-Dimethyl-benzoyl)-5-ethyl-thiophen-2-ylcarbamoyl]-methylsulfanyl}-acetic acid] | 1000 to 30000 nM
14 | CCc1cc(C(=O)c2ccc(C)c(C)c2)c(NC(=O)CC(C)(C)CC(=O)O)s1 [Example 52, 4-[3-(3,4-Dimethyl-benzoyl)-5-ethyl-thiophen-2-ylcarbamoyl]-3,3-dimethyl-butyric acid] | 1000 to 30000 nM
15 | CCc1cc(C(=O)c2ccc(C)c(C)c2)c(NC(=O)CC2(CC(=O)O)CCCC2)s1 [Example 53, (1-{[3-(3,4-Dimethyl-benzoyl)-5-ethyl-thiophen-2-ylcarbamoyl]-methyl}-cyclopentyl)-acetic acid] | 1000 to 30000 nM
16 | CCc1cc(C(=O)c2ccc(C)c(C)c2)c(NC(=O)CSC(C)(C)C(=O)O)s1 [Example 54, 2-{[3-(3,4-Dimethyl-benzoyl)-5-ethyl-thiophen-2-ylcarbamoyl]-methylsulfanyl}-2-methyl-propionic acid] | 100 to 1000 nM
17 | CCc1cc(C(=O)c2ccc(OC)nc2)c(NC(=O)CSCC(=O)O)s1 [Example 55, {[5-Ethyl-3-(6-methoxy-pyridine-3-carbonyl)-thiophen-2-ylcarbamoyl]-methylsulfanyl}-acetic acid] | 1000 to 30000 nM
18 | CCc1cc(C(=O)c2ccc(OC)nc2)c(NC(=O)CC2(CC(=O)O)CCCC2)s1 [Example 56, (1-{[5-Ethyl-3-(6-methoxy-pyridine-3-carbonyl)-thiophen-2-ylcarbamoyl]-methyl}-cyclopentyl)-acetic acid] | 1000 to 30000 nM
19 | CCc1cc(C(=O)c2ccc(C(F)(F)F)nc2)c(NC(=O)CSCC(=O)O)s1 [Example 57, {[5-Ethyl-3-(6-trifluoromethyl-pyridine-3-carbonyl)-thiophen-2-ylcarbamoyl]-methylsulfanyl}-acetic acid] | 1000 to 30000 nM
20 | CCc1cc(C(=O)c2ccc(OC(C)C)nc2)c(NC(=O)CSCC(=O)O)s1 [Example 58, {[5-Ethyl-3-(6-isopropoxy-pyridine-3-carbonyl)-thiophen-2-ylcarbamoyl]-methylsulfanyl}-acetic acid] | 100 to 1000 nM
21 | CCc1cc(C(=O)c2cnc(OC(C)C)c(Cl)c2)c(NC(=O)CSCC(=O)O)s1 [Example 59, {[3-(5-Chloro-6-isopropoxy-pyridine-3-carbonyl)-5-ethyl-thiophen-2-ylcarbamoyl]-methylsulfanyl}-acetic acid] | 100 to 1000 nM
22 | CCc1cc(C(=O)c2ccc(Oc3ccccc3)nc2)c(NC(=O)CSCC(=O)O)s1 [Example 60, {[5-Ethyl-3-(6-phenoxy-pyridine-3-carbonyl)-thiophen-2-ylcarbamoyl]-methylsulfanyl}-acetic acid] | 1000 to 30000 nM
23 | COc1ccc(C(=O)c2cc(C)sc2NC(=O)CSCC(=O)O)cc1 [Example 61, {[3-(4-Methoxy-benzoyl)-5-methyl-thiophen-2-ylcarbamoyl]-methylsulfanyl}-acetic acid] | 1000 to 30000 nM
24 | COc1ccc(C(=O)c2cc(C(C)C)sc2NC(=O)CSCC(=O)O)cc1 [Example 62, {[5-Isopropyl-3-(4-methoxy-benzoyl)-thiophen-2-ylcarbamoyl]-methylsulfanyl}-acetic acid] | 1000 to 30000 nM
25 | CCCc1cc(C(=O)c2ccc(OC)cc2)c(NC(=O)CSCC(=O)O)s1 [Example 63, {[3-(4-Methoxybenzoyl)-5-propyl-thiophen-2-ylcarbamoyl]-methylsulfanyl}-acetic acid] | 1000 to 30000 nM
26 | O=C(O)CSCC(=O)Nc1sc(C2CC2)cc1C(=O)c1ccc(F)cc1 [Example 64, {[5-Cyclopropyl-3-(4-fluoro-benzoyl)-thiophen-2-ylcarbamoyl]-methylsulfanyl}-acetic acid] | 1000 to 30000 nM
27 | COc1ccc(C(=O)c2cc(Cl)sc2NC(=O)CSCC(=O)O)cn1 [Example 65, {[5-Chloro-3-(6-methoxy-pyridine-3-carbonyl)-thiophen-2-ylcarbamoyl]-methylsulfanyl}-acetic acid] | 1000 to 30000 nM
28 | COc1ccc(C(=O)c2cc(Cl)sc2NC(=O)CSCC(=O)O)cc1 [Example 66, {[5-Chloro-3-(4-methoxy-benzoyl)-thiophen-2-ylcarbamoyl]-methylsulfanyl}-acetic acid] | 1000 to 30000 nM
